# ChEMBL document CHEMBL1137017, “In vitro antiviral activity and cross-resistance profile of PL-100, a novel protease inhibitor of human immunodeficiency virus type 1” (Antimicrob Agents Chemother, 2007)
# Tests used:
# [1] = test system: Human immunodeficiency virus 1; test: Resistance index, ratio of EC50 for SQV-resistant HIV1 SaqR carrying G48V/L90MV mutation to EC50 for wild type HIV1 NL4-3 in HEK293 cells after 48 hrs by replication-deffective luciferase reporter gene-based phenotypic assay; assay type: functional
# [2] = test system: Human immunodeficiency virus 1; test: Resistance index, ratio of EC50 for SQV-resistant HIV1 4596 carrying L10R/M46I/L63P/[…]/L90M mutation to EC50 for wild type HIV1 NL4-3 in HEK293 cells after 48 hrs by replication-deffective luciferase reporter gene-based phenotypic assay; assay type: functional
structure (smiles),measurement,setting,value
COC(=O)N[C@H](C(=O)NCCCC[C@@H](CO)N(CC(C)C)S(=O)(=O)c1ccc(N)cc1)C(c1ccccc1)c1ccccc1 [PPL-100],fold change (FC),[1],2.4
same,Activity,[2],1.2
